Test results reported in patent publication US20240300976A1, “COMPOUNDS AS MODULATORS OF ENDOPLASMIC RETICULUM AMINOPEPTIDASE 1 (ERAP1)” (GREY WOLF THERAPEUTICS LIMITED, priority 2020, published 2024).

biological target: T1, ERAP1 (Homo sapiens, UniProt Q9NZ08); assay: ERAP1 mediated hydrolysis of an amide substrate (10-mer inhibition assay), biochemical system; conditions: 10-mer substrate, incubated at 23° C. for 1 h, excitation 279 nm and emission 355 nm; read-out: IC50 vs Decapeptide WRVYEKC(Dnp)ALK-acid (where Dnp is Dinitrophenyl maleimide) (10-mer)
T1 construct: Purified ERAP1(37-941)-10His (ERAP1); 10His (C)
T1 sequence (Q9NZ08 37-941): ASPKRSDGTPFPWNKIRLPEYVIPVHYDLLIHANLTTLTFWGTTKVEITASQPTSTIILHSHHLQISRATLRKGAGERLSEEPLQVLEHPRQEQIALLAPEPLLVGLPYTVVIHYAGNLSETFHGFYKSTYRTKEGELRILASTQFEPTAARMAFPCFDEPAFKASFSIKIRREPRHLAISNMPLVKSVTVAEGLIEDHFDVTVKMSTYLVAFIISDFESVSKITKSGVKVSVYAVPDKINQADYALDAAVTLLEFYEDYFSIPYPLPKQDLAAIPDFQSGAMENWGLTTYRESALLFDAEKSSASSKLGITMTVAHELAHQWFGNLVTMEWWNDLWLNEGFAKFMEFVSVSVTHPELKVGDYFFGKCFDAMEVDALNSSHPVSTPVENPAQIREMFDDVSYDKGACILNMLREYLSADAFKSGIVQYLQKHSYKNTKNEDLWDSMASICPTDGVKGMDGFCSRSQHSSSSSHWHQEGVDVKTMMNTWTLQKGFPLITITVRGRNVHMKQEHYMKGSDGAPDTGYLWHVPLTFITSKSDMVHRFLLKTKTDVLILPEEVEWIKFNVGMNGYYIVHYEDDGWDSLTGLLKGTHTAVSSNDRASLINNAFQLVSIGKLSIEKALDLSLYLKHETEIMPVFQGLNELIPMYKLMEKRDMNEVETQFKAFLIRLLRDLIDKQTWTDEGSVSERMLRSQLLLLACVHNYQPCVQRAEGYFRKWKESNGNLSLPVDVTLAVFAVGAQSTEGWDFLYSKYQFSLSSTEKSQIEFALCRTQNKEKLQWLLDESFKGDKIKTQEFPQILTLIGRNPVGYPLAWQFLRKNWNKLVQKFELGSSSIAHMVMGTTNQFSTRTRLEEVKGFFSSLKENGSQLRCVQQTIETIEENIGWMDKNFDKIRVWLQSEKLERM
Excerpt: This peptide has minimal fluorescence as the N-terminal tryptophan residue's fluorescence is quenched by the dinitrophenol (DNP) residue within the peptide. However, as ERAP1 hydrolyses the N-terminal amide bond and tryptophan is released this internal quenching is lost and the reaction is monitored by the increase in tryptophan fluorescence over the course of the assay. For the purposes of this application this assay is referred to as the “1 Omer inhibition assay” and compound potencies are calculated and expressed as 1050 as would be familiar to a person skilled in the art.
Biological Assay 1: ERAP1 Mediated Hydrolysis of an Amide Substrate Measured in a Biochemical System
• 1× Assay buffer (AB): 25 mM Bis-tris propane, 0.05% w/v Hydroxypropylmethylcellulose pH 7.75 made with Optima grade water • Decapeptide WRVYEKC(Dnp)ALK-acid (where Dnp is Dinitrophenyl maleimide) (10-mer) • L-Leucine 7-amido-4-methylcoumarin (L-AMC) • Purified ERAP1(37-941)-10His (ERAP1)
12.5 μL ERAP1 enzyme in 1×AB was combined with 250 nL test compound in DMSO. 12.5 μL of either 240 μM L-AMC in 1×AB or 100 μM 10-mer in 1×AB was added to the reaction and incubated at 23° C. for 1 h. For detection, plates were read at excitation 365 nm and emission 442 nm (L-AMC) or excitation 279 nm and emission 355 nm (10-mer). Compound IC50 was determined using a 4-parameter equation.

IC50 | Compound
< 250 nM | O=C(O)c1ccc2c(c1)S(=O)(=O)Nc1cc(C(F)(F)F)ccc1N1CCCCC1C/C=C/CO2 (racemic) [Example 1, (E)-2-(trifluoromethyl)-7,8,9,9a,10,13-hexahydro-6H, 20H-dibenzo[b,f]pyrido[1,2-h][1]oxa[4]thia[5,8]diazacyclotridecine-17-carboxylic acid 19,19-dioxide]
> 1000 nM | N#Cc1ccc2c(c1)NS(=O)(=O)c1cc(C(=O)O)ccc1OCCC1CCCCN21 (racemic) [Example 2, 2-cyano-7,8,9,9a,10,11-hexahydro-6H, 18H-dibenzo[b,f]pyrido[1,2-h][1]oxa[4]thia[5,8]diazacycloundecine-15-carboxylic acid 17,17-dioxide]
< 250 nM | N#Cc1ccc2c(c1)NS(=O)(=O)c1cc(C(=O)O)ccc1OCC1CCCCN21 (racemic) [Example 3, 8-cyano-12,13,14,15,15a,16-hexahydro-6H-dibenzo[b,f]pyrido[1,2 h][1,4,5,8]oxathiadiazecine-3-carboxylic acid 5,5-dioxide]
< 250 nM | N#Cc1ccc2c(c1)NS(=O)(=O)c1cc(C(=O)O)ccc1OCCCCC1CCCCN21 (racemic) [Example 4, 2-cyano-7,8,9,9a,10,11,12,13-octahydro-6H,20H-dibenzo[b,f]pyrido[1,2-h][1]oxa[4]thia[5,8]diazacyclotridecine-17-carboxylic acid 19,19-dioxide]
< 250 nM | N#Cc1cc2c(cc1Cl)N1CCCCC1COc1ccc(C(=O)O)cc1S(=O)(=O)N2 (racemic) [Example 14, 9-chloro-8-cyano-12,13,14,15,15a,16-hexahydro-6H-dibenzo[b,f]pyrido[1,2-h][1,4,5,8]oxathiadiazecine-3-carboxylic acid 5,5-dioxide]
< 250 nM | N#Cc1ccc2c(c1)NS(=O)(=O)c1cc(C(=O)O)ccc1OC/C=C/CC1CCCCN21 (racemic) [Example 15, (E)-2-cyano-7,8,9,9a,10,13-hexahydro-6H, 20H-dibenzo[b,f]pyrido[1,2-h][1]oxa[4]thia[5,8]diazacyclotridecine-17-carboxylic acid 19,19-dioxide]
250 to 1000 nM | CS(=O)(=O)c1ccc2c(c1)NS(=O)(=O)c1cc(C(=O)O)ccc1OCC1CCCCN21 (racemic) [Example 18, 8-(methylsulfonyl)-12,13,14,15,15a,16-hexahydro-6H-dibenzo[b,f]pyrido[1,2-h][1,4,5,8]oxathiadiazecine-3-carboxylic acid 5,5-dioxide]
< 250 nM | N#Cc1cc2c(cc1Cl)N1CCCCC1CCCOc1ccc(C(=O)O)cc1S(=O)(=O)N2 (racemic) [Example 21, 3-chloro-2-cyano-6,7,8,9,9a,10,11,12-octahydro-19H-dibenzo[b,f]pyrido[1,2-h][1]oxa[4]thia[5,8]diazacyclododecine-16-carboxylic acid 18,18-dioxide]
< 250 nM | N#Cc1cc2c(cc1Cl)N1CCCCC1CCCCOc1ccc(C(=O)O)cc1S(=O)(=O)N2 (racemic) [Example 22, 3-chloro-2-cyano-7,8,9,9a,10,11,12,13-octahydro-6H, 20H-dibenzo[b,f]pyrido[1,2-h][1]oxa[4]thia[5,8]diazacyclotridecine-17-carboxylic acid 19,19-dioxide]
250 to 1000 nM | CS(=O)(=O)c1ccc2c(c1)NS(=O)(=O)c1cc(C(=O)O)ccc1OCCCCC1CCCCN21 (racemic) [Example 23, 2-(methylsulfonyl)-7,8,9,9a,10,11,12,13-octahydro-6H, 20H-dibenzo[b,f]pyrido[1,2-h][1]oxa[4]thia[5,8]diazacyclotridecine-17-carboxylic acid 19,19-dioxide]
< 250 nM | N#Cc1cc2c(cc1F)N1CCCCC1COc1ccc(C(=O)O)cc1S(=O)(=O)N2 (racemic) [Example 24, 8-cyano-9-fluoro-12,13,14,15,15a,16-hexahydro-6H-dibenzo[b,f]pyrido[1,2-h][1,4,5,8]oxathiadiazecine-3-carboxylic acid 5,5-dioxide]
< 250 nM | CS(=O)(=O)c1cc2c(cc1F)N1CCCCC1COc1ccc(C(=O)O)cc1S(=O)(=O)N2 (racemic) [Example 25, 9-fluoro-8-(methylsulfonyl)-12,13,14,15,15a,16-hexahydro-6H-dibenzo[b,f]pyrido[1,2-h][1,4,5,8]oxathiadiazecine-3-carboxylic acid 5,5-dioxide]
< 250 nM | N#Cc1cc2c(cc1F)N1CCCCC1CCCCOc1ccc(C(=O)O)cc1S(=O)(=O)N2 (racemic) [Example 28, 2-cyano-3-fluoro-7,8,9,9a,10,11,12,13-octahydro-6H,20H-dibenzo[b,f]pyrido[1,2-h][1]oxa[4]thia[5,8]diazacyclotridecine-17-carboxylic acid 19,19-dioxide]
< 250 nM | N#Cc1cc2c(cc1F)N1CCCCC1CCCOc1ccc(C(=O)O)cc1S(=O)(=O)N2 (racemic) [Example 29, 2-cyano-3-fluoro-6,7,8,9,9a,10,11,12-octahydro-19H-dibenzo[b,f]pyrido[1,2-h][1]oxa[4]thia[5,8]diazacyclododecine-16-carboxylic acid 18,18-dioxide]
< 250 nM | N#Cc1cc2c(cc1Cl)N1CCCCC1C/C=C/COc1ccc(C(=O)O)cc1S(=O)(=O)N2 (racemic) [Example 30, (E)-3-chloro-2-cyano-7,8,9,9a,10,13-hexa hydro-6H, 20H-dibenzo[b,f]pyrido[1,2-h][1]oxa[4]thia[5,8]diazacyclotridecine-17-carboxylic acid 19,19-dioxide]
< 250 nM | CS(=O)(=O)c1cc2c(cc1F)N1CCCCC1CCCCOc1ccc(C(=O)O)cc1S(=O)(=O)N2 (racemic) [Example 31, 3-fluoro-2-(methylsulfonyl)-7,8,9,9a,10,11,12,13-octahydro-6H, 20H-dibenzo[b,f]pyrido[1,2-h][1]oxa[4]thia[5,8]diazacyclotridecine-17-carboxylic acid 19,19-dioxide]
< 250 nM | CN1c2cc(S(C)(=O)=O)ccc2N2CCCCC2CCCOc2ccc(C(=O)O)cc2S1(=O)=O (racemic) [Example 34, 19-methyl-2-(methylsulfonyl)-6,7,8,9,9a,10,11,12-octahydro-19H-dibenzo[b,f]pyrido[1,2-h][1]oxa[4]thia[5,8]diazacyclododecine-16-carboxylic acid 18,18-dioxide]
< 250 nM | N#Cc1cc2c(cc1Cl)N1CCCCC1/C=C/COc1ccc(C(=O)O)cc1S(=O)(=O)N2 (racemic) [Example 35, (E)-3-chloro-2-cyano-6,7,8,9,9a,12-hexahydro-19H-dibenzo[b,f]pyrido[1,2-h][1]oxa[4]thia[5,8]diazacyclododecine-16-carboxylic acid 18,18-dioxide]
< 250 nM | CS(=O)(=O)c1ccc2c(c1)NS(=O)(=O)c1cc(C(=O)O)ccc1OCCCC1CCCCN21 (racemic) [Example 36, 2-(methylsulfonyl)-6,7,8,9,9a,10,11,12-octahydro-19H-dibenzo[b,f]pyrido[1,2-h][1]oxa[4]thia[5,8]diazacyclododecine-16-carboxylic acid 18,18-dioxide]
250 to 1000 nM | CS(=O)(=O)c1cc2c(cc1F)N1CCCCC1CCCOc1ccc(C(=O)O)cc1S(=O)(=O)N2 (racemic) [Example 51, 3-fluoro-2-(methylsulfonyl)-6,7,8,9,9a,10,11,12-octahydro-19H-dibenzo[b,f]pyrido[1,2-h][1]oxa[4]thia[5,8]diazacyclododecine-16-carboxylic acid 18,18-dioxide]
< 250 nM | N#Cc1cc2c(cc1Cl)N1CCCCC1COCCOc1ccc(C(=O)O)cc1S(=O)(=O)N2 (racemic) [Example 65, 3-chloro-2-cyano-6,7,8,9,9a,10,12,13-octahydro-20H-dibenzo[e,i]pyrido[1,2-k][1,4]dioxa[7]thia[8,11]diazacyclotridecine-17-carboxylic acid 19,19-dioxide]
> 1000 nM | N#Cc1ccc2c(c1)NS(=O)(=O)c1cc(C(=O)O)ccc1OCCC1CCCCN21 (single isomer, unassigned) [Example 6, 2-cyano-7,8,9,9a,10,11-hexahydro-6H, 18H-dibenzo[b,f]pyrido[1,2-h][1]oxa[4]thia[5,8]diazacycloundecine-15-carboxylic acid 17,17-dioxide]
> 1000 nM | N#Cc1ccc2c(c1)NS(=O)(=O)c1cc(C(=O)O)ccc1OCCC1CCCCN21 (single isomer, unassigned) [Example 7, 2-cyano-7,8,9,9a,10,11-hexahydro-6H, 18H-dibenzo[b,f]pyrido[1,2-h][1]oxa[4]thia[5,8]diazacycloundecine-15-carboxylic acid 17,17-dioxide]

Compound | IC50
3-chloro-2-(1H-tetrazol-1-yl)-7,8,9,9a,10,11,12,13-octahydro-6H, 20H-dibenzo[b,f]pyrido[1,2-h][1]oxa[4]thia[5,8]diazacyclotridecine-17-carboxylic acid 19,19-dioxide [Example 54] | < 250 nM
N#Cc1cc2c(cc1Cl)N1CCCCC1CNCCOc1ccc(C(=O)O)cc1S(=O)(=O)N2 (racemic) [Example 66, 3-chloro-2-cyano-7,8,9,9a,10,11,12,13-octahydro-6H, 20H-dibenzo[b,f]pyrido[1,2-h][1]oxa[4]thia[5,8,11]triazacyclotridecine-17-carboxylic acid 19,19-dioxide] | > 1000 nM
